Patent publication US20080306155A1, “METHOD FOR TREATING RENAL DISEASE” (priority 2004, published 2008)
Values joined by “and” are separate entries in the source; they are usually repeats but may differ in a detail not shown here. Equal entries are not always repeated.

Legend:
Type in all cases: cell-based, rat
isolated glomeruli [1] = test: Albumin permeability (Palb) of isolated glomeruli; settings: 10 ng/ml
Procedure: Measurement of Albumin Permeability (Palb): Glomeruli were isolated using the sieving method as previously described in a medium containing 5 g/dl of bovine serum albumin (BSA). See, Sharma R, et al, Kidney Intl. 58:131-136 (2000); and Savin V, et al. J. Am. Soc. Nephrol. 3:1260-1269 (1992). In each experimental condition, Palb was determined from the change in glomerular volume (•V) after exchange of the bath with medium containing 1 g/dl albumin. Palb was calculated as 1−(•Vexperimental/•Vcontrol) where glomeruli from SD rats fed a normal-salt diet were used to provide the control value for each experiment. To verify that lack of •Vs in Dahl S rats were related to changes in Palb rather than to changes in mechanical properties of glomeruli, additional studies were performed in which the glomeruli were exposed to a 5% solution of high molecular weight dextran.
In other experiments, we examined the interaction of TGF-• and 20-HETE on Palb in glomeruli isolated from SD rats and Dahl S rats fed either a LS diet or a HS diet for 4 days. Glomeruli were preincubated with vehicle or TGF-•1 (10 ng/ml) for 15 minutes at 37° C. and changes in Palb were determined. Glomeruli were also pretreated with 5, 14-20-HEDE (WIT003) (1 μmol/L; Taisho Pharmaceutical; Tokyo, Japan) (Alonso-Galicia et al., supra; and Yu et al., supra), for 15 minutes at 37° C. and the Palb response to TGF-• 1 (10 ng/ml) was redetermined. A minimum of 5 glomeruli from each rat were studied, and the experiments were performed using •5 rats per treatment group.

isolated glomeruli [2] = test: Albumin permeability (Palb) of isolated glomeruli; settings: glomeruli from Dahl S rats fed HS diet for 7 days; 10 ng/ml
[3] = system: glomerular production of 20-HETE; test: LC/MS measurement of glomerular 20-HETE production
Procedure: Liquid Chromatography/Mass Spectroscopy measurement of glomerular 20-HETE production: Glomeruli (approximately 20 μg protein) were incubated in a 0.1 mol/L KPO4 buffer containing 1 mmol/L NADPH for 30 minutes at 37° C. in the presence and absence of TGF-•1 (10 ng/ml). Incubations were stopped by acidification with formic acid, homogenized, and the homogenate extracted with chloroform:methanol (2:1) after addition of 10 ng of internal standard, 14,15-epoxyeicosa-5(Z)-enoic-methyl sulfonylimide (EEZE). Samples were reconstituted in 50% acetonitrile, cleaned up using on online, reverse-phase high performance liquid chromatography (HPLC) trapping column, and then the HETEs and epoxyeicosatrienoic acids (EETs) in the samples were separated using an isocratic step gradient on an 18C—RP 2×250 mm microbore HPLC (BetaBasic18 150×21 3•m; Thermo Hypersil-Keystone; Bellefonte, Pa.) using a mobile phase consisting of acetonitrile:water:acetic acid (57:43:0.1) for 20 minutes to resolve the HETEs followed by acetonitrile:water:acetic acid (63:37:0.1) for 15 minutes to resolve the EETs. Samples were ionized using negative ion electrospray and the peaks eluting with a mass/charge ratio (m/z) of 319 (HETEs and EETs) or 323 (internal standard) were isolated and monitored in the selective ion mass spectroscopy (MS) mode using an Agilent LSD ion trap mass spectrometer (Agilent Technologies 1100; Santa Clara Calif.). The ratio of ion abundances in the peaks of interest (HETEs and EETs, m/z 319) versus that corresponding to the closely eluting internal standard (EEZE, m/z 323) were determined and compared with a standard curve generated over a range from 0.1 ng to 2 ng of 20-HETE and EETs with each batch of samples.

[4] = glomeruli pretreated with TGF-•1 10 ng/ml

What does the source list for “TGF-•1: transforming growth factor-beta 1, applied to isolated glomeruli at 10 ng/ml”?
Palb after TGF-•1 (isolated glomeruli [1]; glomeruli from Dahl S rats fed HS diet for 4 days): 0.87±0.02; Palb after TGF-•1 (isolated glomeruli [1]; glomeruli from Dahl S rats fed a LS diet): 0.75±0.01; Palb after TGF-•1 (isolated glomeruli [1]; glomeruli from SD rats, 15 minutes, 37° C.): 0.60±0.02 and 0.56±0.02; effect on Palb (isolated glomeruli [2]): no effect; glomerular production of 20-HETE ([3]; SD glomeruli with TGF-•1 10 ng/ml): 3.4±0.5 ·g/30 minutes/mg protein; formation of 15-, 12- or 5-HETE or EETs [3, 4]: without affecting; reduction of formation of 20-HETE [3, 4]: 97%
